From patent US20080207708A1, “Oxazole and Thiazole Compounds and Their Use in the Treatment of Pge2 Mediated Disorders” (GLAXO GROUP LIMITED, priority 2005, published 2008) come the findings set out here.

The target in experiment [1] is T1, EP1 receptors (Homo sapiens, UniProt P34995).
T1 sequence (P34995 1-402): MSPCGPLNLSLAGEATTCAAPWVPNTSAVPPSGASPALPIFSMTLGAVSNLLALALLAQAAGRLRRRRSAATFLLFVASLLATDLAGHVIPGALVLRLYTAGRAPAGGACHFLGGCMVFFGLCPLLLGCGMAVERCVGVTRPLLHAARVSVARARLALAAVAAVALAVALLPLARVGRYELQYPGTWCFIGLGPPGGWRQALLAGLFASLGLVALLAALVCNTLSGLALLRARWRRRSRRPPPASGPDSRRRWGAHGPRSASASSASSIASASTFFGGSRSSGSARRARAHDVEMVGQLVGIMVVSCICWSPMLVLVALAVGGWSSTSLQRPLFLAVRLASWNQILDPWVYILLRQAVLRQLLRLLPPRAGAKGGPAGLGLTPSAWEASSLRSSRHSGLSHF
Description: Binding assay for the human prostanoid EP1 receptor (competition with [3H]-PGE2). Also noted: expressed in transfected cells; host or cells: CHO-K1 cells, membrane fraction. The following applies: [3H]-PGE2 competition; averages of a number of experiments; read-out: pIC50 value, binding assay for the human prostanoid EP1 receptor (converted). Summed up: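 Competition against 3 nM (final) tritiated PGE2 at 30° C for 30 min, pH 6 MES assay buffer, using membranes of stably transfected CHO-K1 cells. Filter-retained counts by scintillation; nonlinear curve fitting gives concentration inhibiting 50% of specific binding.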

Experiment [2] deals with T1, EP1 receptors. As to the kind of experiment: human EP1 calcium mobilisation assay (CHO-K1 cells, FLIPR, PGE2). It is filed as cell-based. The following applies: free bases or sodium salts; averages of a number of experiments; read-out: functional pKi value, human EP1 calcium mobilisation assay (converted). Also noted: expressed in transfected cells; host or cells: CHO-K1 cells, pCIN vector. The protocol: Briefly, the antagonist properties of compounds are assessed by their ability to inhibit the mobilisation of intracellular calcium ([Ca^2+]i) in response to activation of EP1 or EP3 receptors by the natural agonist hormone prostaglandin E2 (PGE2). Increasing concentrations of antagonist reduce the amount of calcium that a given concentration of PGE2 can mobilise. The net effect is to displace the PGE2 concentration-effect curve to higher concentrations of PGE2. The amount of calcium produced is assessed using a calcium-sensitive fluorescent dye such as Fluo-4, AM and a suitable instrument such as a Fluorimetric Imaging Plate Reader (FLIPR). Increasing amounts of [Ca^2+]i produced by receptor activation increase the amount of fluorescence produced by the dye and give rise to an increasing signal. The signal may be detected using the FLIPR instrument and the data generated may be analysed with suitable curve-fitting software.
The human EP1 or EP3 calcium mobilisation assay (hereafter referred to as ‘the calcium assay’) utilises Chinese hamster ovary-K1 (CHO-K1) cells into which a stable (pCIN; BioTechniques 20 (1996): 102-110) vector containing either EP1 or EP3 cDNA has previously been transfected. Cells are cultured in suitable flasks containing culture medium such as DMEM:F-12 supplemented with 10% v/v foetal calf serum, 2 mM L-glutamine, 0.25 mg/ml geneticin, 100 μM flurbiprofen and 10 µg/ml puromycin. For assay, cells are harvested using a proprietary reagent that dislodges cells such as Versene. Cells are re-suspended in a suitable quantity of fresh culture media for introduction into a 384-well plate. Following incubation for 24 hours at 37° C. the culture media is replaced with a medium containing Fluo-4 and the detergent pluronic acid, and a further incubation takes place. Concentrations of compounds are then added to the plate in order to construct concentration-effect curves. This may be performed on the FLIPR in order to assess the agonist properties of the compounds. Concentrations of PGE2 are then added to the plate in order to assess the antagonist properties of the compounds. The data so generated may be analysed by means of a computerised curve-fitting routine. The concentration of compound that elicits a half-maximal inhibition of the calcium mobilisation induced by PGE2 (pIC50) may then be estimated.
A general note: A change in cytosolic calcium serves as a functional read-out for many receptors and channels.

Structures can show the parent of a compound that is named as a salt. Some results are limits rather than exact numbers.

As for `CC(C(=O)O)c1csc(-c2cc(Cl)ccc2OCc2ccccc2)n1` (stereo not shown) [Example 46, Sodium 2-(2-{5-chloro-2-[(phenylmethyl)oxy]phenyl}-1,3-thiazol-4-yl)propanoate], the IC50 on EP1 receptors [1] is at most 1 µM. In addition, at EP1 receptors [2], the Ki was under 1 µM.

As for `CC(C(=O)O)c1csc(-c2cc(Br)ccc2OCc2ccccc2)n1` (stereo not shown) [Example 47, Sodium 2-(2-{5-bromo-2-[(phenylmethyl)oxy]phenyl}-1,3-thiazol-4-yl)propanoate], the IC50 on EP1 receptors [1] was at most 1 µM. In addition, on EP1 receptors [2], the Ki is under 1 µM.

Consider `CC(C)(C(=O)O)c1csc(-c2cc(Cl)ccc2OCc2ccccc2)n1` [Example 48, Sodium 2-(2-{5-chloro-2-[(phenylmethyl)oxy]phenyl}-1,3-thiazol-4-yl)-2-methylpropanoate], for which the IC50 on EP1 receptors [1] is at most 1 µM. Moreover, the Ki at EP1 receptors [2] was under 1 µM.

Consider `CC(C)(C(=O)O)c1csc(-c2cc(Br)ccc2OCc2ccccc2)n1` [Example 49, Sodium 2-(2-{5-bromo-2-[(phenylmethyl)oxy]phenyl}-1,3-thiazol-4-yl)-2-methylpropanoate], for which, on EP1 receptors [1], the IC50 was at most 1 µM. Further, the Ki on EP1 receptors [2] is under 1 µM.

In the case of `CC(c1nc(C(=O)O)cs1)c1cc(Cl)ccc1OCc1ccccc1` (stereo not shown) [Example 50], on EP1 receptors [1], the IC50 is at most 1 µM. On EP1 receptors [2], the Ki is under 1 µM.

On to `O=C(O)Cc1coc(-c2cc(Cl)ccc2OCc2ccc(F)cc2F)n1` [Example 79, [2-(5-chloro-2-{[(2,4-difluorophenyl)-methyl]oxy}phenyl)-1,3-oxazol-4-yl]acetic acid], for which the IC50 on EP1 receptors [1] was at most 1 µM. On EP1 receptors [2], the Ki is over 1 µM.

Turning to `O=C(O)Cc1coc(-c2cc(Cl)ccc2OCc2c(F)cc(F)cc2F)n1` [Example 80, [2-(5-chloro-2-{[(2,4,6-trifluorophenyl)methyl]oxy}phenyl)-1,3-oxazol-4-yl]acetic acid], the IC50 on EP1 receptors [1] is at most 1 µM. Besides, the Ki on EP1 receptors [2] was over 1 µM.

On to `O=C(O)Cc1coc(-c2cc(Cl)ccc2OCc2ccc(F)cc2Cl)n1` [Example 81, [2-(5-chloro-2-{[(2-chloro-4-fluorophenyl)methyl]oxy}phenyl)-1,3-oxazol-4-yl]acetic acid], for which, at EP1 receptors [1], the IC50 was at most 1 µM. Besides, the Ki on EP1 receptors [2] was over 1 µM.

Regarding `O=C(Nc1ccccc1)c1csc(Cc2cc(Cl)ccc2OCc2ccccc2)n1` [Example 91, 2-({5-Chloro-2-[(phenylmethyl)oxy]phenyl}methyl)-N-phenyl-1,3-thiazole-4-carboxamide], the IC50 at EP1 receptors [1] was at most 1 µM. The Ki on EP1 receptors [2] was over 1 µM.

`O=C(NCc1ccccc1)c1csc(Cc2cc(Cl)ccc2OCc2ccccc2)n1` [Example 92, 2-({5-Chloro-2-[(phenylmethyl)oxy]phenyl}methyl)-N-(phenylmethyl)-1,3-thiazole-4-carboxamide]: the IC50 at EP1 receptors [1] is at most 1 µM. Also, the Ki at EP1 receptors [2] was over 1 µM.

Take `CC(C)CNC(=O)c1csc(Cc2cc(Cl)ccc2OCc2ccccc2)n1` [Example 93, 2-({5-Chloro-2-[(phenylmethyl)oxy]phenyl}methyl)-N-(2-methylpropyl)-1,3-thiazole-4-carboxamide]: the IC50 at EP1 receptors [1] was at most 1 µM. In addition, on EP1 receptors [2], the Ki is over 1 µM.

Regarding `O=C(NCc1ccccn1)c1csc(Cc2cc(Cl)ccc2OCc2ccccc2)n1` [Example 94, 2-({5-Chloro-2-[(phenylmethyl)oxy]phenyl}methyl)-N-(2-pyridinylmethyl)-1,3-thiazole-4-carboxamide], the IC50 on EP1 receptors [1] was at most 1 µM. Further, at EP1 receptors [2], the Ki was under 1 µM.

With `O=C(NCc1cccnc1)c1csc(Cc2cc(Cl)ccc2OCc2ccccc2)n1` [Example 95, 2-({5-Chloro-2-[(phenylmethyl)oxy]phenyl}methyl)-N-(3-pyridinylmethyl)-1,3-thiazole-4-carboxamide], the IC50 on EP1 receptors [1] was at most 1 µM. The Ki on EP1 receptors [2] was under 1 µM.

In the case of `O=C(NCc1ccncc1)c1csc(Cc2cc(Cl)ccc2OCc2ccccc2)n1` [Example 96, 2-({5-Chloro-2-[(phenylmethyl)oxy]phenyl}methyl)-N-(4-pyridinylmethyl)-1,3-thiazole-4-carboxamide], on EP1 receptors [1], the IC50 was at most 1 µM. Further, on EP1 receptors [2], the Ki was under 1 µM.

Take `CNC(=O)c1csc(Cc2cc(Cl)ccc2OCc2ccccc2)n1` [Example 97, 2-({5-Chloro-2-[(phenylmethyl)oxy]phenyl}methyl)-N-methyl-1,3-thiazole-4-carboxamide]: the IC50 on EP1 receptors [1] was at most 1 µM. For the same compound, on EP1 receptors [2], the Ki was over 1 µM.

Regarding `O=C(Nc1nnn[nH]1)c1csc(Cc2cc(Cl)ccc2OCc2ccccc2)n1` [Example 98, 2-({5-Chloro-2-[(phenylmethyl)oxy]phenyl}methyl)-N-1H-tetrazol-5-yl-1,3-thiazole-4-carboxamide], the IC50 on EP1 receptors [1] is at most 1 µM. The Ki on EP1 receptors [2] was at most 0.0316 µM.

With `O=C(Nc1ccccn1)c1csc(Cc2cc(Cl)ccc2OCc2ccccc2)n1` [Example 99, 2-({5-Chloro-2-[(phenylmethyl)oxy]phenyl}methyl)-N-2-pyridinyl-1,3-thiazole-4-carboxamide], on EP1 receptors [1], the IC50 was at most 1 µM. The Ki on EP1 receptors [2] was over 1 µM.

Take `O=C(NS(=O)(=O)c1ccccc1)c1csc(Cc2cc(Cl)ccc2OCc2ccc(F)cc2)n1` [Example 101, 2-[(5-Chloro-2-{[(4-fluorophenyl)methyl]-oxy}phenyl)methyl]-N-(phenylsulfonyl)-1,3-thiazole-4-carboxamide]: the IC50 at EP1 receptors [1] was at most 0.0316 µM. For the same compound, the Ki at EP1 receptors [2] is under 1 µM.

With `O=C(NS(=O)(=O)c1ccccc1)c1csc(Cc2cc(Cl)ccc2OCc2ccc(F)cc2F)n1` [Example 102, 2-[(5-Chloro-2-{[(2,4-difluorophenyl)methyl]oxy}phenyl)methyl]-N-(phenylsulfonyl)-1,3-thiazole-4-carboxamide], at EP1 receptors [1], the IC50 was at most 0.0316 µM. The Ki at EP1 receptors [2] was under 1 µM.

As to `O=C(NS(=O)(=O)c1ccccc1)c1csc(Cc2cc(Cl)ccc2OCc2ccccc2F)n1` [Example 103, 2-[(5-Chloro-2-{[(2-fluorophenyl)methyl]-oxy}phenyl)methyl]-N-(phenylsulfonyl)-1,3-thiazole-4-carboxamide], the IC50 at EP1 receptors [1] is at most 0.0316 µM. The Ki at EP1 receptors [2] is under 1 µM.

`O=C(NS(=O)(=O)c1ccccc1)c1csc(Cc2cc(Cl)ccc2OCc2ccccc2Cl)n1` [Example 104, 2-[(5-Chloro-2-{[(2-chlorophenyl)methyl]-oxy}phenyl)methyl]-N-(phenylsulfonyl)-1,3-thiazole-4-carboxamide]: the IC50 at EP1 receptors [1] is at most 0.0316 µM. The Ki at EP1 receptors [2] is under 1 µM.

Take `CC(C)COc1ccc(Cl)cc1Cc1nc(-c2nnc[nH]2)cs1` [Example 157, 3-[2-({5-Chloro-2-[(2-methyl-propyl)oxy]-phenyl}methyl)-1,3-thiazol-4-yl]-1H-1,2,4-triazole]: the IC50 at EP1 receptors [1] is at most 1 µM.

Turning to `CC(C)(C)OC(=O)Nc1coc(Cc2cc(Cl)ccc2OCc2ccccc2)n1` [Example 161, 1,1-Dimethylethyl [2-({5-chloro-2-[(phenylmethyl)oxy]phenyl}methyl)-1,3-oxazol-4-yl]carbamate], the IC50 on EP1 receptors [1] is over 1 µM.

As for `CC(C)COc1ccc(Cl)cc1Cc1nc(-c2nc3ccccc3[nH]2)co1` [Example 162, 2-[2-({5-Chloro-2-[(2-methylpropyl)oxy]phenyl}methyl)-1,3-oxazol-4-yl]-1H-benzimidazole hydrochloride], the IC50 on EP1 receptors [1] is at most 0.0316 µM.

As to `CC(C)COc1ccc(Cl)cc1Cc1nc(-c2nc3cc(N4CCN(C)CC4)ccc3[nH]2)co1` [Example 163, 2-[2-({5-Chloro-2-[(2-methylpropyl)oxy]phenyl}methyl)-1,3-oxazol-4-yl]-5-(4-methyl-1-piperazinyl)-1H-benzimidazoletrihydrochloride], at EP1 receptors [1], the IC50 was at most 0.0316 µM.
